We go through one compound from paper PMC10492212 (Journal of Ayurveda and Integrative Medicine, 2023).

The target of the experiment is intestinal α-glucosidase. Description: sucrose hydrolysis, glucose oxidase-peroxidase, absorbance […] nm. Format: biochemical. The note with it: phosphate buffer pH 7.5, 20 min pre-incubation at 37 °C.

In brackets after ≈: the same amount, converted by molar mass.

As a reminder, the IC50 is the point on the concentration scale where inhibition reaches its midpoint. A lower IC50 goes with greater potency. Turning to `C[C@H]1O[C@H](O[C@H]2[C@H](O)[C@@H](O)[C@@H](O[C@H]3[C@H](O)[C@@H](O)C(O)O[C@@H]3CO)O[C@@H]2CO)[C@H](O)[C@@H](O)[C@@H]1N[C@H]1C=C(CO)[C@@H](O)[C@H](O)[C@H]1O` (stereo partly shown) [acarbose], the IC50 was determined as 52.5 ± 2.67 µg/mL (≈ 81.3 µM).
